Consider 16 molecules from ChEMBL document CHEMBL1136821, “Modelling of carbonic anhydrase inhibitory activity of sulfonamides using molecular negentropy” (Bioorg Med Chem Lett, 2003).

One assay has as its target T1, Carbonic anhydrase 4 (Bos taurus, UniProt Q95323).
T1 sequence (Q95323 whole entry): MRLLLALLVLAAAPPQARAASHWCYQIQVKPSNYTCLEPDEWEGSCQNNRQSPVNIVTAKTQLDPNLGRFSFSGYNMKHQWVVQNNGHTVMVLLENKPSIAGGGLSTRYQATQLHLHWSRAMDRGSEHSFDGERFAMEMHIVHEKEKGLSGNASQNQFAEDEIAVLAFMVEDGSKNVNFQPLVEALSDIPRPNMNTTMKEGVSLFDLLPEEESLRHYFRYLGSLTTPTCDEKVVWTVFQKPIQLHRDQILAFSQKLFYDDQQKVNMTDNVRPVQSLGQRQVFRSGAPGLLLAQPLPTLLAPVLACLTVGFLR
Description: Inhibition of bovine carbonic anhydrase IV (CAIV).

Another assay concerns the target Carbonic anhydrase 1 (Homo sapiens, UniProt P00915). Description: Inhibition of human carbonic anhydrase I (CAI).
For another assay, the target named is Carbonic anhydrase 2 (Homo sapiens, UniProt P00918). Nature of the assay: Inhibition of human carbonic anhydrase II (CAII).

Carbonic anhydrase 1, sequence (P00915 whole entry): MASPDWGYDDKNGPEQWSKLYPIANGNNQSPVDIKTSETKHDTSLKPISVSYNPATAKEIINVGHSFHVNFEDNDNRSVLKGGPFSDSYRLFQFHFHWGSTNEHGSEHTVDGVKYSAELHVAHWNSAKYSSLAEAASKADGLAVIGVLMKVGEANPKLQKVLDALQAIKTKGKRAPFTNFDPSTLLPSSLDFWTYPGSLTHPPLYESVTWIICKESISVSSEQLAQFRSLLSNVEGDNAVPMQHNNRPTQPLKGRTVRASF

With `NS(=O)(=O)c1cccc(C(=O)c2cccc(C(=O)O)n2)c1`, the Ki on Carbonic anhydrase 4 is 305 nM; at Carbonic anhydrase 1 it was 20000 nM; at Carbonic anhydrase 2 it was 250 nM.
Regarding `NS(=O)(=O)c1ccc(C(=O)c2cccc(C(=O)O)n2)cc1`, the Ki on Carbonic anhydrase 4 was 170 nM; on Carbonic anhydrase 1, 15500 nM; on Carbonic anhydrase 2, 132 nM.
The corresponding values for `NS(=O)(=O)c1ccc(C(=O)c2cccc(C(=O)O)n2)c(Cl)c1` are 79 nM, 620 nM and 44 nM.
For `NS(=O)(=O)c1cc(S(N)(=O)=O)c(NC(=O)c2cccc(C(=O)O)n2)c(Cl)c1NC(=O)c1cccc(C(=O)O)n1`, the Ki on Carbonic anhydrase 4 is 55 nM; at Carbonic anhydrase 1, 450 nM; on Carbonic anhydrase 2 it was 10 nM.
On to `NS(=O)(=O)c1ccc(CC(=O)c2cccc(C(=O)O)n2)cc1`, for which the Ki on Carbonic anhydrase 4 was 79 nM.
As to `Nc1c(S(N)(=O)=O)cc(S(N)(=O)=O)c(N)c1Cl`, the Ki at Carbonic anhydrase 4 is 175 nM; on Carbonic anhydrase 1 it was 6100 nM.
As to `NS(=O)(=O)c1cc(S(N)(=O)=O)c(C(=O)c2cccc(C(=O)O)n2)cc1Cl`, the inhibition constant Ki was 60 nM at Carbonic anhydrase 4, 600 nM on Carbonic anhydrase 1 and 8.99 nM at Carbonic anhydrase 2.
`NS(=O)(=O)c1ccc(CCON2C(=O)c3cccnc3C2=O)cc1`: the Ki at Carbonic anhydrase 4 was 105 nM; at Carbonic anhydrase 1 it was 2000 nM; on Carbonic anhydrase 2, 15 nM.
Regarding `NS(=O)(=O)c1ccc(C(=O)c2cccc(C(=O)O)n2)c(Br)c1`, the inhibition constant (Ki) on Carbonic anhydrase 4 was 75 nM; on Carbonic anhydrase 1, 605 nM.
Regarding `NS(=O)(=O)c1cc(S(N)(=O)=O)c(C(=O)c2cccc(C(=O)O)n2)c(Cl)c1C(=O)c1cccc(C(=O)O)n1`, the results for the Ki at Carbonic anhydrase 4, at Carbonic anhydrase 1 and at Carbonic anhydrase 2 were 69 nM, 500 nM and 12 nM, respectively.
`NS(=O)(=O)c1ccc(C(=O)c2cccc(C(=O)O)n2)c(F)c1`: the Ki on Carbonic anhydrase 4 was 46 nM; on Carbonic anhydrase 1, 540 nM; on Carbonic anhydrase 2, 10 nM.
For `NS(=O)(=O)c1ccc(CCC(=O)c2cccc(C(=O)O)n2)cc1`, the results for the Ki at Carbonic anhydrase 4, at Carbonic anhydrase 1 and at Carbonic anhydrase 2 were 54 nM, 906 nM and 8.99 nM, respectively.
The corresponding values for `NS(=O)(=O)c1ccccc1C(=O)c1cccc(C(=O)O)n1` are 310 nM, 21000 nM and 280 nM.
In the same order, the values of `NS(=O)(=O)c1ccc(CON2C(=O)c3cccnc3C2=O)cc1` are 120 nM, 2040 nM and 20 nM.
Turning to `NS(=O)(=O)c1ccc(C(=O)c2cccc(C(=O)O)n2)c(I)c1`, the values for the Ki at Carbonic anhydrase 4, on Carbonic anhydrase 1 and at Carbonic anhydrase 2 were 70 nM, 610 nM and 33 nM, respectively.
Regarding `NS(=O)(=O)c1ccc(NC(=O)c2cccc(C(=O)O)n2)cc1`, the Ki was 300 nM on Carbonic anhydrase 4 and 21500 nM on Carbonic anhydrase 1.
